Assay results as given in patent US10653676B2 (Dana-Farber Cancer Institute, Inc., priority 2010, dated 2020).
Read-outs that look alike come from different tables or passages of the source.

How the values were obtained:
USP1 = target: T1, USP1 (Homo sapiens, UniProt O94782); experiment: Ub-vinyl sulfone conjugation of USP1 in lysates of compound-treated HeLa cells; assay type: cell-based
T1 construct: endogenous in cells; host or cells: HeLa
Experimental: In one set of experiments, HeLa cells were incubated in the presence of 50 μM of selected inhibitors including the compound of Formula III (933) and the compound of Formula IV (527) for 2, 4, or 6 hours, followed by cell lysis. […] Lysates were incubated with the Ub-vinyl sulfone (Ub-Vs) reagent for 40 minutes. Proteins were electrophoresed on SDS-PAGE, transferred to nitrocellulose, and immunoblotted with the anti-USP1 antibody.
HeLa cells were incubated with the compound of Formula IV (527) for eight hours, followed by cell lysis and incubation of protein extract with Ub-vinyl sulfone.

[1] = tested on: FANCD2-Ub and FANCI-Ub levels in HeLa cells; experiment: cell-based assay of monoubiquitinated FANCD2 and FANCI levels by immunoblotting; set-up: species or system human; settings: eight hours, increasing concentrations, FIG. 3
Experimental: Candidate USP1 inhibitors from initial and secondary screens were then used in cell-based assays to look for USP1 inhibition in vivo using levels of FANCD2-Ub and PCNA-Ub as biomarkers for inhibition. For the cell-based assay, cells were treated with the candidate compounds and levels of monoubiquitinated FANCD2 and PCNA were tested both with and without DNA damage. USP1 inhibition was detected as high level of endogenous monoubiquitinated FANCD2 and PCNA. For this assay HeLa and HEK293T cells were treated with selected concentrations of these compounds and grown in Dulbecco's modified Eagle's medium supplemented with 15% heat-inactivated fetal calf serum in a humidified 5% CO2 incubator at 37° C. Damage was induced by both UV irradiation using Stratalinker (Stratagene) and treatment with mitomycin C (MMC, Sigma). After cell lysis, levels of monoubiquitinated FANCD2 and PCNA in whole cell lysate was tested by immunoblotting with anti-FANCD2 antibody (sc-20022; Santa Cruz Biotechnology) and anti-PCNA antibody (sc-56; Santa Cruz Biotechnology). Protection from chromosome aberrations were also tested in UV/MMC-damaged cells treated with candidate USP1 inhibitors using standard chromosome breakage assay. Yang et al. (2001) Blood 98:3435-40. […]

USP1/UAF1 complex = target: T2, USP1/UAF1 complex (Homo sapiens, UniProt O94782, G670A/G671A); experiment: ubiquitin-AMC in vitro deubiquitination enzyme assay; assay type: biochemical
T2 construct: This modified full length USP1 clone was PCR amplified and subcloned into pFastBac-HT vectors; His tag (N); made in house; host or cells: Sf9 insect cells (baculovirus)
T2 sequence (O94782 whole entry G670A/G671A): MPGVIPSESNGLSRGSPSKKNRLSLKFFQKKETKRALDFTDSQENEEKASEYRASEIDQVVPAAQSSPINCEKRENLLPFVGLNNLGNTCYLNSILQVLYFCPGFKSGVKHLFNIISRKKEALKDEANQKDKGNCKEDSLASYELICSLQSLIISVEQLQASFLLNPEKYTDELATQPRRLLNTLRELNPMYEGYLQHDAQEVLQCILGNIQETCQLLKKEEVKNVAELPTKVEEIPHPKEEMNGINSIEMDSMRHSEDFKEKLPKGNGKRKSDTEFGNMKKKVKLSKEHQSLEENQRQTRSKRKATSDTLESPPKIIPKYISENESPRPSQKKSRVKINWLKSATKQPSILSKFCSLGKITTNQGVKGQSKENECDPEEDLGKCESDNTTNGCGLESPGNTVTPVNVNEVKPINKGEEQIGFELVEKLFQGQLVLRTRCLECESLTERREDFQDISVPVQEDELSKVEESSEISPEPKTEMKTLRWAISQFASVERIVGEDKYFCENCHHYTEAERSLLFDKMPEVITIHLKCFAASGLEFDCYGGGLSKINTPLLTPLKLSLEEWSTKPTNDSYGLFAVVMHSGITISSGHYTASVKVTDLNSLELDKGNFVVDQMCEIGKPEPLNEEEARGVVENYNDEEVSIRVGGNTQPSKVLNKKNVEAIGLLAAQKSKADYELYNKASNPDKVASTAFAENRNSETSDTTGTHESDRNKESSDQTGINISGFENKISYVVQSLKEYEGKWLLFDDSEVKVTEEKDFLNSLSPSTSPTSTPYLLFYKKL
T2 sequence (Q8TAF3 whole entry partner): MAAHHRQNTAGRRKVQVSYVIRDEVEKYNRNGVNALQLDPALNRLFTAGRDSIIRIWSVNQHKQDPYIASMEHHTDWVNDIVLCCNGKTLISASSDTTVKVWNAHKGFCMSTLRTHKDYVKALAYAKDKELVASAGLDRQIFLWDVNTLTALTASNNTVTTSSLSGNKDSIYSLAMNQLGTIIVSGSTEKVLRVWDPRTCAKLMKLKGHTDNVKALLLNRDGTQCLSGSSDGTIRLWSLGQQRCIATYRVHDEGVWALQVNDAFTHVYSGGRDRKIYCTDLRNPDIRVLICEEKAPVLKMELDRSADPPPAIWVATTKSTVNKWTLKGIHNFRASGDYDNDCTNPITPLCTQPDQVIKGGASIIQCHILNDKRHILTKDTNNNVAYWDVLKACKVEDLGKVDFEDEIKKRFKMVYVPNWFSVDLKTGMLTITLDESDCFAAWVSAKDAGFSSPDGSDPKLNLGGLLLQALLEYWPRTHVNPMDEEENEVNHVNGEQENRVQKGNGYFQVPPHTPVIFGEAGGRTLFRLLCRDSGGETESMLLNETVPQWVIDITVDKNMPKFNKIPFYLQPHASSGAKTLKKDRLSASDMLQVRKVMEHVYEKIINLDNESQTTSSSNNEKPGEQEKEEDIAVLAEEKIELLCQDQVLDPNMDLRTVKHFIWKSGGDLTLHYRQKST
Experimental: Purified USP1/UAF1 complex was incubated with 1 μM C527 or DMSO for indicated time, followed by the addition of Ub-AMC at 0.5 μM final concentration. The fluorescence at […] was measured to indicate the enzymatic activity of USP1. […] 5A.
The in vitro enzymatic assays were performed using purified proteins from Sf9 cells as described previously (Cohn et al.). The assays using ubiquitin-AMC (Ub-7-amido-4-methylcoumarin; Boston Biochem) as substrate was carried out in a reaction buffer containing 20 mM HEPES-KOH (pH 7.8), 20 mM NaCl, 0.1 mg/ml ovalbumin, 0.5 mM EDTA and 10 mM dithiothreitol. The fluorescence was measured by FluoStar Galaxy Fluorometer (BMG Labtech). For the Ub-vinylsulfone (VS) assay, the proteins were incubated with Ub-VS at 0.5 μM final concentration for 1 h at 30° C., followed by the immunoblotting analysis.
In order to develop a highly sensitive assay with easy readout for high throughput detection, the fluorogenic compound Ubiquitin-7-amido-4-methylcoumarin (AMC-Ub, Boston Biochem) was used as a substrate for USP1/UAF1 enzyme complex. USP1 catalyzes the cleavage of AMC-Ub, releasing free AMC moiety, which leads to increase in fluorescence emission at 460 nm (λex=380 nm). Dang et al. (1998) Biochemistry 37:1868-79. […] Initial enzyme assay development was performed in 96-well plates with 100 μl reaction volume containing 20 mM HEPES-KOH, 0.1 mg/ml ovalbumin (Sigma), 0.5 mM EDTA, and 10 mM DTT. 2.5 nM USP1/UAF1 enzyme complex was mixed with the reaction buffer, incubated at 37° C. for 10 minutes and then 0.3 μM AMC-Ub was added. Fluorescence was measured using a Fluostar Galaxy Fluorometer (BMG Labtech Inc.).
Hits from the initial screening were analyzed further in secondary screening. In this step, the compounds were re-tested for inhibition using the AMC-Ub in vitro enzyme assay. After reconfirming inhibition, different concentration range of the inhibitors were tested to show dose dependency of inhibition and IC50 calculation.

native USP1 = target: T3, native USP1 (Homo sapiens, UniProt O94782); experiment: HA-Ub-VS labelling of native USP1 in HeLa cell extracts; assay type: biochemical; settings: HeLa cell extracts pretreated 4 h, then Ub-VS 40 min at 30° C.; FIG. 7
T3 construct: endogenous in cells; host or cells: HeLa cell extract
T3 sequence (O94782 whole entry): as the sequence (O94782 whole entry G670A/G671A) above, with A670G, A671G counted along it
T3 sequence (Q8TAF3 whole entry partner): as the sequence (Q8TAF3 whole entry partner) above
Experimental: FIG. 7 is a composite figure depicting preferential inhibition of the activity of native USP1/UAF1 by C527. HeLa cell extracts were incubated with ubiquitin-aldehyde (Ub-Ald, 5 μM) or C527 at indicated concentrations for 4 h, followed by the addition of 0.5 μM Ub-Vs for 40 min. The reaction was split into two aliquots and subjected to immunoblotting for HA or USP1, respectively.
The ability of C527 to inhibit the deubiquitinating activity of native USP1 complexes derived from human cells was determined next (FIG. 7). For this purpose, the HA-tagged ubiquitin-VS, an affinity reagent known to covalently modify and trap active DUB enzymes in cell extracts was used. Cell extracts prepared from HeLa cells were pretreated with increasing concentrations of C527 for 4 h, followed by the incubation with Ub-VS for 40 min at 30° C. The enzymatic activity of endogenous DUBs was indicated by the conjugation of Ub-VS, detected as HA-labeling (see FIG. 7, high molecular weight bands). […] Ub-VS conjugation was inhibited by ubiquitin-aldehyde (Ub-Ald), a non-specific inhibitor of DUBs (lane 3).

T1 sequence (O94782 whole entry): as the sequence (O94782 whole entry G670A/G671A) above, with A670G, A671G counted along it
T1 sequence (Q8TAF3 whole entry partner): as the sequence (Q8TAF3 whole entry partner) above

## O=C1c2ccccc2C(=O)c2oc(-c3ccc(F)cc3)nc21 [Formula IV (527)]
USP1; HeLa cells incubated eight hours, increasing concentrations, FIG. 3
  USP1 deubiquitinase activity (Ub-vinyl sulfone): dose-dependent blockade
USP1; HeLa cells, 50 μM inhibitor for 2, 4, or 6 hours, lysates with Ub-Vs 40 minutes, FIG. 2
  Ub-Vs conjugation of USP1 / deubiquitinase activity: potent inhibitor of deubiquitinase activity
[1]
  FANCD2-Ub levels: dose-dependent increase
  FANCI-Ub levels: dose-dependent increase
USP1/UAF1 complex; 4 hour preincubation, AMC-Ub in vitro enzyme assay, read-out: IC50
  IC50: 134 nM
USP1/UAF1 complex; single dose 1 uM, variable time periods, FIG. 5A
  inhibition of DUB activity (fluorescence) with pretreatment time: serial increase in inhibition of DUB activity
USP1/UAF1 complex; treatment for 2 h, 0.5 to 2 μM, FIG. 5B
  DUB activity with increasing dose: dose-dependent decrease in DUB activity
USP1/UAF1 complex; ubiquitin-AMC substrate, FIG. 5C, read-out: IC50 of C527 for the USP1/UAF1 complex
  IC50: 880 ± 30 nM
Native USP1
  USP1 binding to Ub-VS: did inhibit USP1 binding to Ub-VS in the same reaction in a dose-dependent manner
